According to patent US20230140290A1, “SALICYLAMIDE DERIVATIVES AND RELATED METHODS OF MAKING” (THE BOARD OF REGENTS OF THE UNIVERSITY OF TEXAS SY, priority 2020, published 2023):
Read-outs that look alike come from different tables or passages of the source.

How the values were obtained:
HAdV5-GFP [1] = settings: read-out: IC50, inhibition of HAdV infection; Marrugal-Lorenzo et al. 2019; cited from earlier work
HAdV5-GFP [2] = assay: Entry assay (HAdV5-mediated GFP expression); assay type: cell-based, HAdV-5; settings: for (%) Inhibition Entry Assay (50 μM): 48 h; for inhibition at 50 µM: A549, 48 h, read-out: (%) Inhibition Entry Assay (50 μM)
Experimental: Entry Assay. The anti-HAdV activity was measured in an entry assay using human A549 epithelial cells (3×10^5 cells/well in coming black wall, clear bottom 96-well plates) infected with HAdV5-GFP (2000 vp/cell) in the presence 50 μM of the candidates and in a dose-response assay. A standard infection curve was generated in parallel by infecting cells in the absence of compounds using serial 2-fold dilutions of virus. All reactions were done in triplicate. Cells, virus, and drugs were incubated for 48 h at 37° C. and 5% CO2.

[3] = Maximum tolerated dose (MTD); settings: immunosuppressed Syrian hamster, intraperitoneal
Experimental: Maximum tolerated dose (MTD). […] Before dosing, compounds were diluted in 10% DMSO, 10% Cremophor EL and 80% sodium chloride physiological solution. […] At day 14 animals were sacrificed with a lethal dose of thiopental. All inoculations were done via intraperitoneal.

HAdV5-GFP [4] = assay: Plaque assay (inhibition of HAdV plaque formation); assay type: cell-based, HAdV-5; settings: for Selectivity index (SI): ratio of CC50 to IC50 in plaque assay; for inhibition at 10 µM: read-out: Plaque Assay (%) Inhibition (10 μM)
How it was run: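 Cells at 80-90% confluency infected with HAdV5-GFP at 0.06 vp/cell, rocked 2 h at 37° C, then washed with PBS. Compounds tested at 10 μM and in dose-response from 10 to 0.3 μM, included in the post-infection mixture.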

HAdV5 = assay: HAdV-mediated endosome disruption (α-sarcin co-delivery assay); assay type: cell-based, HAdV-5; settings: FIG. 11; A549, 5 μM, independent of virus concentration
HAdV5-GFP [5] = assay: Time of addition assay; assay type: cell-based, HAdV-5
Experimental: (§1) Time of Addition Curve Study. […] Parallel samples of HAdV-5 were incubated with or without the selected derivatives on ice for 1 h. […] The derivatives were added at the indicated time points before or during this incubation. After a total of 2 h at 37° C., cells were incubated for an additional 48 h at 37° C. and 5% CO2 before being analyzed for GFP expression using the Typhoon 9410 imager (GE Healthcare Life Sciences) as above.
as §1, with “Assay.” for “Curve Study.”
as §1, with “Assay.” for “Curve Study.”, “compounds” for “derivatives”, “Compounds 153 and 161” for “The derivatives”

wild-type HAdV5 [6] = assay: Nuclear-associated HAdV genomes (real-time PCR); assay type: cell-based, HAdV-5
Experimental: (§2) Nuclear-Associated HAdV Genomes. The nuclear delivery of HAdV genomes was assessed by real-time PCR following nuclear isolation from infected cells. […] Forty-five minutes after infection, A549 cells were trypsinized and collected and then washed twice with PBS. Then, cytoplasmic and nuclear fractions were separated using a hypotonic buffer solution and NP-40 detergent. The cell pellet was resuspended in 500 μL of 1×hypotonic buffer (20 mM Tris-HCl pH 7.4, 10 mM NaCl, 3 mM MgCl2) and incubated for 15 min at 4° C. Then, 25 μL of NP-40 was added and the samples were vortexed. The homogenates were centrifuged for 10 min at 835 g at 4° C. Following the removal of the cytoplasmic fraction (supernatant), HAdV DNA was isolated from the nuclear fraction (pellet) and from the cytoplasmic fraction using the QIAamp DNA Mini Kit (QIAGEN, Valencia, Calif.).
as §2, with “E.Z.N.A.® Tissue” for “QIAamp”, “DNA” for “DNA Mini”, “(Omega Bio-tek, Norcross, Ga.).” for “(QIAGEN, Valencia, Calif.).”

[7] = Cytotoxicity assay (AlamarBlue); settings: human, A549 cells
Experimental: (§3) Cytotoxicity Assay. The cytotoxicity of the compounds was analyzed by commercial kit AlamarBlue® (Invitrogen, Ref. DAL1025). A549 cells at a density of 5×10^3 cells per well in 96-well plates were seeded. […] Cells were then incubated at 37° C. for 48 h following the kit protocol. The cytotoxic concentration 50 (CC50) value was obtained using the statistical package GraphPad Prism. This assay was performed in duplicate.

wild-type HAdV5 [8] = assay: HAdV DNA quantification by real-time PCR (DNA replication); assay type: cell-based, HAdV-5; settings: 24 h
Experimental: DNA Quantification by Real-Time PCR. […] Infected cells were incubated 24 h at 37° C. in 500 μL of complete DMEM containing 25 μM of either compounds or the same volume of DMSO (positive control). All samples were done in duplicate. After 24 h of incubation at 37° C., DNA was purified from the cell lysate with the QIAamp DNA Mini Kit (QIAGEN, Valencia, Calif.) following the manufacturer's instructions. TaqMan primers and probes for a common region of the HAdV5 were designed with the GenScript Real-Time PCR (TaqMan) Primer Design software (GenScript). […] Real-time PCR mixtures consisted of 9.5 μL of the purified DNA, AQ1 and AQ2 at a concentration of 200 nM each and Probe at a concentration of 50 nM in a total volume of 25 μL. The PCR cycling protocol was 95° C. for 3 min followed by 40 cycles of 95° C. for 10 s and 60° C. for 30 s. Human glyceraldehyde-3-phosphate dehydrogenase (GAPDH) gene was used as internal control. Oligonucleotides sequences for GAPDH and conditions were those previously reported by Henke-Gendo et al. (2012).
For quantification, gene fragments from hexon, and GAPDH were cloned into the pGEM-T Easy vector (Promega) and known concentrations of template were used to generate a standard curve in parallel for each experiment. All assays were performed in thermal cycler LightCycler® 96 System (Roche).
(§4) HAdV DNA Quantification by Real-Time PCR. […] All samples were done in duplicate. After 24 h of incubation at 37° C., DNA was purified from the cell lysate with the E.Z.N.A.® Tissue DNA Kit (Omega Bio-tek, Norcross, Ga.) following the manufacturer's instructions. TaqMan primers and probes for a common region of the HAdV5 were designed with the GenScript Real-Time PCR (TaqMan) Primer Design software (GenScript). […] Real-time PCR mixtures consisted of 9.5 μL of the purified DNA, AQ1 and AQ2 at a concentration of 200 nM each and Probe at a concentration of 50 nM in a total volume of 25 μL. The PCR cycling protocol was 95° C. for 3 min followed by 40 cycles of 95° C. for 10 s and 60° C. for 30 s. Human glyceraldehyde-3-phosphate dehydrogenase (GAPDH) gene was used as internal control. Oligonucleotides sequences for GAPDH and conditions were those previously reported by Henke-Gendo et al. (2012).
as §4, with “DNA” for “HAdV DNA”

HCMV = HCMV DNA quantification by real-time PCR; assay type: cell-based, human cytomegalovirus; settings: HFF cells, 72 h, 10-fold plaque IC50 (niclosamide 5 μM)
Experimental: HCMV DNA Quantification by Real-Time PCR. […] Then, cells were incubated for 72 h at 37° C. and 5% CO2 and HCMV DNA was purified from the cell lysate using the QIAamp DNA Mini Kit (Qiagen, Valencia, Calif.) following the manufacturer's instructions. Real-time PCR primers, mixtures and protocols were the same as previously reported (Sanchez-Cespedes et al., J. Med. Chem. 2016, 59, 5432-5448).

A549 cells = assay: Cytotoxicity assay (AlamarBlue); settings: read-out: CC50 (μM), cytotoxic concentration 50%; A549 cell line, 48 h
Experimental: as §3

[9] = A549, read-out: IC50 Entry Assay (μM), HAdV5-GFP, high MOI, A549 cell line
[10] = FIG. 5A, 45 min post-infection, 10-fold plaque IC50
[11] = read-out: Plaque Assay IC50 (μM), HAdV5-GFP, low MOI, 293β5 cell line

Structure (SMILES) | inhibition at 50 µM (HAdV5-GFP [2]) [%] | IC50 (HAdV5-GFP [2]; [9]) [µM] | amount of nuclear-associated HAdV genomes versus DMSO (wild-type HAdV5 [6]; [10]) | Selectivity index (SI) (HAdV5-GFP [4]) | inhibition at 10 µM (HAdV5-GFP [4]) [%] | IC50 (HAdV5-GFP [4]; [11]) [µM] | also measured
O=C(Nc1ccc([N+](=O)[O-])cc1Cl)c1cc(Cl)ccc1O [Compound 6, niclosamide, reference compound] | – | – | – | – | – | – | IC50 (HAdV5-GFP [1]): 600 nM; (%) Inhibition Entry Assay (50 μM) (HAdV5-GFP [2]; HAdV5-GFP, high MOI, A549 cell line): 100.0 ± 0.0%; (%) Inhibition Entry Assay (50 μM) (HAdV5-GFP [2]; HAdV5-GFP, high MOI, A549 cell line, listed as 73, 50 µM): 100 ± 0%; IC50 (HAdV5-GFP [2]; HAdV5-GFP, high MOI, A549 cell line, read-out: IC50 Entry Assay): 1.22 ± 0.44 µM; doses showing high toxicity [3]: ≥ 5 mg/kg; Plaque Assay (%) Inhibition (10 μM) (HAdV5-GFP [4]; HAdV5-GFP, 10 μM, low MOI, 293β5 cell line): 100 ± 0%; IC50 (HAdV5-GFP [4]; HAdV5-GFP, low MOI, 293β5 cell line, read-out: Plaque Assay IC50): 0.6 µM; rate of HPG incorporation compared to a control without α-sarcin (HAdV5): under 50%
CC(C)(C)OC(=O)N1CCC(CNc2ccc(NC(=O)c3cc(Cl)ccc3O)c(Cl)c2)CC1 [Compound 126, tert-Butyl 4-(((3-chloro-4-(5-chloro-2-hydroxybenzamido)phenyl)amino)methyl)piperidine-1-carboxylate] | 67.6 | < 3.13 | partially inhibited | 102.2 | 97.8 ± 1.4 | 0.93 | anti-HAdV activity when added between 10 and 20 min p.i. (HAdV5-GFP [5]; FIG. 7, 10-fold plaque IC50): loses its anti-HAdV activity; CC50 at 48 h [7]: 95 µM
O=C(Nc1ccc(C(F)(F)F)cc1Cl)c1cc(Cl)ccc1O [Compound 14, 5-Chloro-N-(2-chloro-4-(trifluoromethyl)phenyl)-2-hydroxybenzamide] | 100 | 1.67 ± 0.25 | – | – | 100 | 0.08 | loss of inhibition when added between 5 and 10 min p.i. (HAdV5-GFP [5]; FIG. 2, 10 μM): 20%; inhibition of HAdV-5 DNA replication (qPCR) (wild-type HAdV5 [8]; FIG. 4, concentrations by CC50 (2-50 μM)): significant (p≤0.0001) inhibitory activity; amount of nuclear-associated HAdV genomes versus DMSO (wild-type HAdV5 [6]; FIG. 3, 45 min post infection, concentrations by CC50 (2-50 μM)): partially inhibited
O=C(Nc1ccc(NC2CCCC2)cc1Cl)c1cc(Cl)ccc1O [Compound 78, 5-Chloro-N-(2-chloro-4-(cyclopentylamino)phenyl)-2-hydroxybenzamide] | 27.5 ± 3.8 | > 50 | no significant differences | 185.8 | 100 | 0.5 ± 0.1 | inhibition of HAdV-5 DNA replication (qPCR) (wild-type HAdV5 [8]; FIG. 6A, 10-fold plaque IC50): moderate inhibition; decrease of total HCMV DNA compared to the DMSO control (HCMV): no significant inhibition; CC50 (A549 cells): 92.9 ± 7.1 µM
